{
  "source": "paper PMC8614864",
  "about": "“Bioengineered System for High Throughput Screening of Kv1 Ion Channel Blockers” (Bioengineering, 2021)",
  "key": {"[1]": {"system": "KcsA-Kv1.3-RFP", "test": "Direct titration of GFP-labeled toxins on spheroplasts by flow cytometry", "type": "binding", "description": "Spheroplasts were prepared according to the previously developed protocol. Briefly, E. coli cells (BL21 (DE3) strain) transformed with pET28a-KcsA-Kv1.3-RFP plasmid were cultivated in a minimal M9 medium at 37 °C up to OD560 = 0.8, then induced with 50 μM IPTG and further grown for 18 h. Cells were harvested by centrifugation (5000× g, 10 min, 4 °C), incubated in buffer A (10 mM Tris–HCl, pH 8.0, 0.5 m sucrose) containing lysozyme (20 μg/mL) for 7 min on ice, then diluted twofold with buffer B (10 mM Tris–HCl, pH 8.0, 0.3 mM ethylenediamine tetraacetic acid) and further incubated for 20 min. Then MgCl2 was added to a final concentration of 10 mM to stabilize the spheroplasts. Obtained in this way, the spheroplast suspension has OD560 of about 0.5 and was diluted for binding assay as described further.\nFor ligand binding analysis, a series of ligand dilutions were prepared in 12 × 75 mm flow cytometry test tubes. For this, 45 µL of toxin solution with a ten times higher concentration than the maximal concentration on titration curve was prepared. This solution was serially diluted with 3.16-fold step (13.9 µL of toxin solution + 30 µL buffer). These toxin dilutions were supplemented with 270 µL of spheroplast suspension at 10^6 cells/mL to give 300 µL final reaction mixtures. For analysis of displacement of GFP-labeled toxins by unlabeled toxins, spheroplast suspensions were supplemented with 1.1× concentration of GFP-labeled toxin before mixing with unlabeled toxin dilutions. All dilutions were made in a binding buffer: 0.25 M sucrose, […], 2 mM KCl, 50 mM NaCl, 10 mM MgCl2, 0.2% BSA and 50 mM Tris–HCl, pH 7.5.\nTo ensure equilibrium conditions, we analyzed samples after 90–120 min of incubation without removing toxins. Data acquisition was carried out with FC-500 flow cytometer (Beckman Coulter, Brea, CA, USA) using 488 nm excitation for both GFP and RFP and fluorescence detection with FL1 (505–545 nm) and FL3 (610–630 nm) channels for GFP and RFP, respectively. To minimize background fluorescence, samples were run at low speed that gave approx. 100–500 events/s. Events were triggered by side scatting (SSC) so that RFP-labeled cells constituted approx. 30% of events (Figure 2). Remaining events were also present in the samples of filtered binding buffer without cells, so were likely to be related to system noise (either electronic or optical) but not to the dim spheroplasts.\nAutomated data analysis was performed by a dedicated script after pre-processing with commercial software. The script was available in user-friendly Jupyter notebook format where data were processed stepwise, and user input-output was realized through an internet browser. This script is designed to process multiple datasets at once and can be easily adjusted for someone’s actual needs.\nInitial preprocessing was done with used FlowJo v10 software (Treestar Inc., Wilmington, DE, USA). This was used for gating on cells by forward and side scatter, followed by gating of RFP-positive events (Figure 1) and exporting of gated data in FCS format. This step was preferable since it allowed one to convert data into a conventional FCS format (our flow cytometer import data in LMD file format) and to filter out off-target events such as system noise, cell debris, clumped and untransfected cells (without Kv1.3-RFP in our case). We also created a script for this preprocessing but found it more complicated and less robust than commercial software.\nFiltered data were processed stepwise by a dedicated script, written in the Python programming language and available as a Jupyter notebook for running either on a local machine or in a kaggle data cloud (https://www.kaggle.com/georgesharonov/fcsgroupfit, accessed and executed on 14 November 2021). Data processing workflow was designed for high throughput analysis by processing all similar data in a single script execution. The processing steps were detailed within the notebook. […]"}, "[2]": {"target": "KcsA-Kv1.3-RFP", "test": "Direct titration of GFP-labeled toxins on spheroplasts by flow cytometry", "conditions": "slope by linear fitting of reduced data (maximum of normal distribution along GFP axis); one-site binding curve; 90–120 min incubation, 50 mM Tris–HCl pH 7.5 binding buffer; Mean ± SD (SD from fit, single dataset)"}},
  "note": "Where two headings read alike, the source gives them in different places.",
  "data": [
    {"substance": "ChTx-GFP: hybrid protein, ChTx tagged N-terminally with eGFP, analogous to AgTx2-GFP; fluorescent probe", "values": [
      {"measurement": "Slope, nonspecific binding", "setting": "[1]; 1 nM labeled toxin + 316 nM ChTx, fitting of all events", "result": 0.47},
      {"measurement": "Slope, nonspecific binding", "setting": "[1]; 1 nM labeled toxin + 316 nM ChTx, fitting of reduced data", "result": 0.25},
      {"measurement": "Slope (proportional to occupied receptor fraction)", "setting": "[1]; 1 nM labeled toxin, fitting of all events", "result": 0.55},
      {"measurement": "Slope (proportional to occupied receptor fraction)", "setting": "[1]; 1 nM labeled toxin, fitting of reduced data", "result": 0.56},
      {"measurement": "Slope, nonspecific binding", "setting": "[1]; 10 nM labeled toxin + 316 nM ChTx, fitting of all events", "result": 0.53},
      {"measurement": "Slope, nonspecific binding", "setting": "[1]; 10 nM labeled toxin + 316 nM ChTx, fitting of reduced data", "result": 0.21},
      {"measurement": "Slope (proportional to occupied receptor fraction)", "setting": "[1]; 10 nM labeled toxin, fitting of all events", "result": 0.87},
      {"measurement": "Slope (proportional to occupied receptor fraction)", "setting": "[1]; 10 nM labeled toxin, fitting of reduced data", "result": 0.84},
      {"measurement": "Kd", "setting": "[1]; binding curve of direct titration, reduced data, nonspecific binding subtracted, flow cytometry, read-out: Kd (printed in Figure 4A)", "result": 0.735, "unit": "nM"},
      {"measurement": "Kd", "setting": "[2]", "result": "0.74 ± 0.17", "unit": "nM"}
    ]}
  ]
}
